These results are taken from PubChem BioAssay (NCI).

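These data come from cells grown in 96-well plates and exposed to compound for 48 hours at five concentrations. TGI: concentration producing complete growth inhibition.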

Some test systems named below: NCI-H226 lung; NCI-H522 lung; SF-295 CNS; HOP-62 NSCLC; HS 578T breast; U251 CNS; OVCAR-8 ovarian; HT29 colon; A549 NSCLC; SNB-19 CNS.
Common to all, as to assay: DTP human tumour cell line panel, 48 h

As for `C/C(=C\C(=N\NC(=N)N)c1ccccc1)c1ccccc1`, the TGI in the assay on NCI-H226 lung was found to be 13 µM; in the assay with NCI-H522 lung it was 1.76 µM; in the assay with SF-295 CNS, 1.87 µM; in the assay with HOP-62 NSCLC, 0.7 µM; in the assay on HS 578T breast, 18.5 µM; in the assay with U251 CNS, 2.04 µM. In addition, the TGI with OVCAR-8 ovarian is 4.83 µM; in the assay with HT29 colon it was 3.44 µM; with A549 NSCLC, 16.9 µM; in the assay on SNB-19 CNS, 3.49 µM.
Regarding `O=C(O)CCCN=C(C1=C(O)C(=O)N(c2ccccc2)C1=O)c1ccccc1`, the total growth inhibition concentration (TGI) with NCI-H226 lung, in the assay on NCI-H522 lung, in the assay with SF-295 CNS, in the assay on HOP-62 NSCLC, in the assay with HS 578T breast and in the assay on U251 CNS was more than 100 µM in each case. Besides, the TGI in the assay on OVCAR-8 ovarian, in the assay on HT29 colon, in the assay on A549 NSCLC and in the assay on SNB-19 CNS was more than 100 µM in each case.
Take `N=C(N)c1ccc(N=Nc2c(O)ccc3cc4c(N=Nc5ccc(C(=N)N)cc5)c(O)ccc4cc23)cc1`: the TGI with NCI-H226 lung, in the assay on NCI-H522 lung, in the assay with SF-295 CNS, in the assay with HOP-62 NSCLC, in the assay with HS 578T breast and in the assay on U251 CNS was more than 100 µM each time. The concentration for total growth inhibition (TGI) in the assay with OVCAR-8 ovarian, with HT29 colon, with A549 NSCLC and in the assay with SNB-19 CNS was more than 100 µM throughout.
Regarding `Cn1c(=O)ccc2c(=O)c3ccccc3oc21`, the TGI with NCI-H226 lung, in the assay with NCI-H522 lung, in the assay with SF-295 CNS, in the assay with HOP-62 NSCLC, in the assay on HS 578T breast and in the assay on U251 CNS was more than 100 µM each time. In addition, the concentration for total growth inhibition (TGI) in the assay on OVCAR-8 ovarian, with HT29 colon, with A549 NSCLC and in the assay with SNB-19 CNS was more than 100 µM in each case.
`Cc1cc(=O)n2c3c(c4c(cc13)c(CN(C)C)cc(=O)n4C)OC2`: the concentration for total growth inhibition (TGI) with NCI-H226 lung was more than 67.1 µM; with NCI-H522 lung, 28.4 µM; in the assay on SF-295 CNS it was more than 72.7 µM; in the assay with HOP-62 NSCLC it was more than 100 µM; with HS 578T breast it was 41.1 µM; in the assay with U251 CNS, more than 100 µM. Besides, the TGI was more than 66.6 µM in the assay on OVCAR-8 ovarian, more than 45.9 µM in the assay with HT29 colon, more than 55.1 µM in the assay with A549 NSCLC and more than 74.6 µM in the assay with SNB-19 CNS.
Consider `Cn1cc(-c2nnc(-c3ccc(Cl)cc3)[nH]c2=O)c2ccccc21`, for which the TGI was 35.4 µM in the assay on NCI-H226 lung; 6.16 µM in the assay on NCI-H522 lung; more than 28.3 µM in the assay on SF-295 CNS; more than 75.8 µM with HOP-62 NSCLC; more than 100 µM in the assay with HS 578T breast; more than 37.5 µM in the assay on U251 CNS. Further, the TGI in the assay with OVCAR-8 ovarian is more than 100 µM; with HT29 colon, more than 24.6 µM; with A549 NSCLC, more than 100 µM; with SNB-19 CNS, more than 54.7 µM.
